# Tested on: HBV viral load (viral production from HepAD38 cells)
# Experiment: Activity of test compounds on viral production from HepAD38 cells (viral load by qPCR of HBV core sequence)
# Type: cell-based
# Conditions: Hepatitis B virus, HePAD38, 120 h, viral load lowering, 5 days, qPCR of supernatant, read-out: VL HepAD38 EC50 range
# Description: Assay Measuring Activity of Test Compounds on Viral Production from HepAD38 Cells
# HepAD38 cells grown in a T-150 flask (Corning, cat #: 430825) with Growth Medium (DMEM/F12 (1:1) (Hyclone, cat #: SH30023.02), 1× Pen/Strep (Invitrogen, cat #: 15140-122), 10% FBS (Tissue Culture Biologics, cat #: 101), 250 μg/mL G418 (Alfa Aesar, cat #: J62671), 1 μg/mL Tetracycline (Teknova, cat #: T3320)) were detached with 0.25% trypsin-EDTA (Invitrogen, cat #: 25200-056). Tetracycline-free treatment medium (15 mL DMEM/F12 (1:1) 1× Pen/step, with 2% FBS, Tet-system approved (Clontech, cat #: 631106) were then added to mix, transferred into a 50 ml conical tube (Falcon, cat #: 21008-918) and spun at 1300 rpm for 5 min. Pelleted cells were then re-suspended/washed with 50 mL of 1×DPBS (Invitrogen, cat #: 14190-136) 2 times and 50 mL treatment medium twice. HepAD38 cells were then re-suspended with 10 mL of treatment medium, syringed and counted. Wells of 96-well clear bottom TC plate (Corning, cat #: 3904) were seeded at 50,000 cells/well in 180 μL of treatment medium, and 20 μL of either 10% DMSO (Sigma, cat #: D4540) as controls or a 10× solution of test compounds in 10% DMSO in treatment media was added for a final compound concentration starting at 10 μM, and plates were incubated in 5% CO2 incubator at 37° C. for 5 days.
# Subsequently viral load production was assayed by quantitative PCR (qPCR) of the HBV core sequence. PCR reaction mixture containing forward primers HBV-f 5′-CTGTGCCTTGGGTGGCITT-3′ (IDT DNA), Reverse primers HBV-r 5′-[…]-3′ (IDT DNA), Fluorescent TaqMan™ Probes HBV-probe 5′-FAM/AGCTCCAAA/ZENMITCTITATAAGGGTCGATGTC/3IABkFQ-3′ (IDT DNA), 10 μL/well of PerfeCTa® qPCR ToughMix® (Quanta Biosciences, Cat #: 95114-05K), and 6 μL/well of DEPC water (Alfa Aesar, cat #: J62087) was prepared. Four μL of supernatant was added to 16 μL of the reaction mixture in a qPCR plate (Applied Biosytems, Cat #: 4309849), sealed with a film (Applied Biosystems, Cat #: 4311971), centrifuged for a few seconds, and subsequently run on an Applied Biosystems VIIA7. The PCR mixture was incubated at 45° C. for 5 min, then 95° C. for 10 min, followed by 40 cycles of 10 seconds at 95° C. and 20 seconds at 60° C. Viral load was quantified against known HBV DNA standards by using ViiA™ 7 Software. Viral load in the supernatant from wells with treated cells were compared against viral load in supernatant from DMSO control wells (3 per plate). Cell viability assay was performed with CellTiter-Glo Luminescent Cell Viability Assay (Promega, cat #: G7573) with modification. Mixed appropriate amount of CellTiter-Glo (CTG) 1×DPBS in a 1:1 ratio, added 100 uL of the mixture to each well followed completely removal of all supernatant in each well without touching cell surface. Incubated the plate at room temperature for 10 min on an orbital shaker, and then read the plate with a plate reader (TECAN M1000 or Envision). EC50 or CC50 values were calculated through curve-fitting of the four-parameter nonlinear-logistic-regression model (GraphPad Prism or Dotmatics). CC50 values were all >10 μM.
row,SMILES,EC50 [nM]
1,"Cn1cnc(C2CC3CC(O)(c4cc(C(C)(C)C#N)nn4C)CC3C2)c1C(=O)Nc1ccc(F)c(Cl)c1 (centres unmarked) [Example 104, N-(3-chloro-4-fluorophenyl)-4-(5-(3-(2-cyanopropan-2-yl)-1-methyl-1H-pyrazol-5-yl)-5-hydroxyoctahydropentalen-2-yl)-1-methyl-1H-imidazole-5-carboxamide]",< 10
2,"Cn1cnc(C2CC3CC(O)(c4c(F)c(O)nn4C)CC3C2)c1C(=O)Nc1ccc(F)c(Cl)c1 (centres unmarked) [Example 61, N-(3-Chloro-4-fluorophenyl)-4-(5-(4-fluoro-3-hydroxy-1-methyl-1H-pyrazol-5-yl)-5-hydroxyoctahydropentalen-2-yl)-1-methyl-1H-imidazole-5-carboxamide]",< 10
3,"CC(C)n1cc(Cl)c(C2(O)CC3CC(c4ncn(C)c4C(=O)Nc4ccc(F)c(Cl)c4)CC3C2)n1 (centres unmarked) [Example 154, 4-(5-(4-Chloro-1-isopropyl-1H-pyrazol-3-yl)-5-hydroxyoctahydropentalen-2-yl)-N-(3-chloro-4-fluorophenyl)-1-methyl-1H-imidazole-5-carboxamide]",< 10
4,"CC(O)COc1cc(C2(O)CC3CC(c4ncn(C)c4C(=O)Nc4ccc(F)c(Cl)c4)CC3C2)n(C)n1 (centres unmarked) [Example 208, N-(3-Chloro-4-fluorophenyl)-4-(5-hydroxy-5-(3-(2-hydroxypropoxy)-1-methyl-1H-pyrazol-5-yl)octahydropentalen-2-yl)-1-methyl-1H-imidazole-5-carboxamide]",< 10
5,"Cn1cc(C2(O)CC3CC(c4ncn(C)c4C(=O)Nc4ccc(F)c(C#N)c4)CC3C2)c(C(F)(F)F)n1 (centres unmarked) [Example 115, N-(3-Cyano-4-fluorophenyl)-4-(5-hydroxy-5-(1-methyl-3-(trifluoromethyl)-1H-pyrazol-4-yl)octahydropentalen-2-yl)-1-methyl-1H-imidazole-5-carboxamide]",< 10
6,"O=C(Nc1ccc(F)c(Cl)c1)c1c(C2CC3CC(O)CC3C2)nc2n1CCNC2 (centres unmarked) [Example 85, N-(3-chloro-4-fluorophenyl)-2-(5-hydroxyoctahydropentalen-2-yl)-5,6,7,8-tetrahydroimidazo[1,2-a]pyrazine-3-carboxamide]",50 to 500
7,"CC#Cc1cc(C2(O)CC3CC(c4ncn(C)c4C(=O)Nc4ccc(F)c(Cl)c4)CC3C2)n(C)n1 (centres unmarked) [Example 56, N-(3-Chloro-4-fluorophenyl)-4-(5-hydroxy-5-(1-methyl-3-(prop-1-yn-1-yl)-1H-pyrazol-5-yl)octahydropentalen-2-yl)-1-methyl-1H-imidazole-5-carboxamide]",< 10
8,"Cn1cc(C2(O)CC3CC(c4ncn(C)c4C(=O)Nc4ccc(F)c(Cl)c4)CC3C2)c(C(O)CO)n1 (centres unmarked) [Example 190, N-(3-Chloro-4-fluorophenyl)-4-(5-(3-(1,2-dihydroxyethyl)-1-methyl-1H-pyrazol-4-yl)-5-hydroxyoctahydropentalen-2-yl)-1-methyl-1H-imidazole-5-carboxamide]",< 10
9,"CCn1cc(C2(O)CC3CC(c4ncn(C)c4C(=O)Nc4ccc(F)c(Cl)c4)CC3C2)c(C(F)(F)F)n1 (centres unmarked) [Example 151, N-(3-Chloro-4-fluorophenyl)-4-(5-(1-ethyl-3-(trifluoromethyl)-1H-pyrazol-4-yl)-5-hydroxyoctahydropentalen-2-yl)-1-methyl-1H-imidazole-5-carboxamide]",< 10
10,"CNc1nc(C2CC3CC(O)CC3C2)c(C(=O)Nc2ccc(F)c(Cl)c2)n1C (centres unmarked) [Example 30, N-(3-Chloro-4-fluorophenyl)-4-(5-hydroxyoctahydropentalen-2-yl)-1-methyl-2-(methylamino)-1H-imidazole-5-carboxamide]",< 10
11,"CC(=O)N1CCn2c(nc(C3CC4CC(O)CC4C3)c2C(=O)Nc2ccc(F)c(Cl)c2)C1 (centres unmarked) [Example 87, 7-acetyl-N-(3-chloro-4-fluorophenyl)-2-(5-hydroxyoctahydropentalen-2-yl)-5,6,7,8-tetrahydroimidazo[1,2-a]pyrazine-3-carboxamide]",< 10
12,"Cn1cnc(C2CC3CC(O)(c4cc(C(C)(C)C(F)(F)F)nn4C)CC3C2)c1C(=O)Nc1ccc(F)c(Cl)c1 (centres unmarked) [Example 105, N-(3-chloro-4-fluorophenyl)-4-(5-hydroxy-5-(1-methyl-3-(1,1,1-trifluoro-2-methylpropan-2-yl)-1H-pyrazol-5-yl)octahydropentalen-2-yl)-1-methyl-1H-imidazole-5-carboxamide]",< 10
13,"CC(C)Cn1nc(OCC(C)(C)O)cc1C1(O)CC2CC(c3ncn(C)c3C(=O)Nc3ccc(F)c(Cl)c3)CC2C1 (centres unmarked) [Example 221, N-(3-Chloro-4-fluorophenyl)-4-(5-hydroxy-5-(3-(2-hydroxy-2-methylpropoxy)-1-isobutyl-1H-pyrazol-5-yl)octahydropentalen-2-yl)-1-methyl-1H-imidazole-5-carboxamide]",< 10
14,"Cn1cc(C2(O)CC3CC(c4ncn(C)c4C(=O)Nc4ccc(F)c(Cl)c4)CC3C2)c(C(F)(F)F)n1 (single isomer, unassigned) [Example 114, N-(3-Chloro-4-fluorophenyl)-4-(5-hydroxy-5-(1-methyl-3-(trifluoromethyl)-1H-pyrazol-4-yl)octahydropentalen-2-yl)-1-methyl-1H-imidazole-5-carboxamide]",< 10
15,"Cn1cnc(C2CC3CC(O)(c4c(F)cnn4C)CC3C2)c1C(=O)Nc1ccc(F)c(Cl)c1 (centres unmarked) [Example 124, N-(3-chloro-4-fluorophenyl)-4-(5-(4-fluoro-1-methyl-1H-pyrazol-5-yl)-5-hydroxyoctahydropentalen-2-yl)-1-methyl-1H-imidazole-5-carboxamide]",< 10
16,"Cc1cn[nH]c1C1(O)CC2CC(c3ncn(C)c3C(=O)Nc3ccc(F)c(Cl)c3)CC2C1 (centres unmarked) [Example 135, N-(3-chloro-4-fluorophenyl)-4-(5-hydroxy-5-(4-methyl-1H-pyrazol-5-yl)octahydropentalen-2-yl)-1-methyl-1H-imidazole-5-carboxamide]",< 10
17,"Cn1cnc(C2CC3CC(O)(c4cc(C(F)(F)F)nn4C)CC3C2)c1C(=O)Nc1ccc(F)c(Cl)c1 (single isomer, unassigned) [Example 72, N-(3-Chloro-4-fluorophenyl)-4-(5-hydroxy-5-(1-methyl-3-(trifluoromethyl)-1H-pyrazol-5-yl)octahydropentalen-2-yl)-1-methyl-1H-imidazole-5-carboxamide]",< 10
18,"O=C(Nc1ccc(F)c(Cl)c1)c1c(C2CC3CC(O)CC3C2)nc2n1CCC2 (single isomer, unassigned) [Example 32, N-(3-Chloro-4-fluorophenyl)-2-(5-hydroxyoctahydropentalen-2-yl)-6,7-dihydro-5H-pyrrolo[1,2-a]imidazole-3-carboxamide]",10 to 50

# Same assay, conditions: viral load lowering, 5 days, qPCR of supernatant, read-out: VL HepAD38 EC50 range
row,SMILES,EC50 [nM]
1,"CC(CO)Oc1cc(C2(O)CC3CC(c4ncn(C)c4C(=O)Nc4ccc(F)c(Cl)c4)CC3C2)n(C)n1 (single isomer, unassigned) [Example 69, N-(3-Chloro-4-fluorophenyl)-4-(5-hydroxy-5-(3-((1-hydroxypropan-2-yl)oxy)-1-methyl-1H-pyrazol-5-yl)octahydropentalen-2-yl)-1-methyl-1H-imidazole-5-carboxamide]",10 to 50
2,"Cn1cnc(C2CC3CC(NC4CC4)CC3C2)c1C(=O)Nc1ccc(F)c(Cl)c1 (single isomer, unassigned) [Example 45, 5-[-5-(Cyclopropylamino)-1,2,3,3a,4,5,6,6a-octahydropentalen-2-yl]-N-(3-chloro-4-fluorophenyl)-3-methyl-4-imidazolecarboxamide]",10 to 50
